Measured values taken from patent publication EP1614683B1, “Indazole compounds and pharmaceutical compositions for inhibiting protein kinases, and methods for their use” (priority 1999, dated 2001).
Like-named read-outs stand apart in the source and are kept apart here.

How the values were obtained:
[1] = system: lung cancer cells (line MV522); assay: Cancer cell proliferation (MV522) assay; format: cell-based
Procedure: The protocol for assessing cellular proliferation in cancer cells is similar to that used for assessments in HUVEC cells. Two thousand lung cancer cells (line MV522, acquired from American Tissue Cultural Collection) were seeded in growth media (RPMI1640 medium supplemented with 2 mM glutamine and 10% FBS). Cells are allowed to attach for 1 day prior to addition of test agents and /or vehicles. Cells are treated simultaneously with the same test agents used in the HUVEC assay. Cellular proliferation is quantified by MTT dye reduction assay 72 hours after exposure to test agents. The total length of the assay is 4 days vs. 5 for HUVEC cells because MV522 cells are not exposed to starvation medium.

human FGF-R1 = human FGF-R1 (Homo sapiens, UniProt P11362, C488A/C584S/L457V); assay: FGF-R spectrophotometric assay; format: biochemical; settings: for inhibition at 1 µM: Table 1, compound concentration 1 µM, read-out: FGF-P* (% inhibition)
Procedure: The spectrophotometric assay was carried out as described above for VEGF-R2, except for the following changes in concentration: FGF-R = 50 nM, ATP = 2 mM, and poly(E4Y1) =15 mM.

LCK tyrosine kinase = LCK tyrosine kinase (Homo sapiens, UniProt P06239, C224D/P223M); assay: LCK spectrophotometric assay; format: biochemical; settings: Table 1; compound concentration 1 µM; read-out: Lck-P* (% inhibition)
Procedure: The spectrophotometric assay was carried out as described above for VEGF-R2, except for the following changes in concentration: LCK = 60 nM, MgCl2 = 0 mM, poly(E4Y1) = 20 mM.

[2] = molecular target: T1, phosphorylated Tie-2 (aa 775-1122) (Homo sapiens, UniProt Q02763); assay: TIE-2 spectrophotometric assay; format: biochemical; settings: Table 5; 1 µM; bold values spectrophotometric assay, non-bolded DELFIA assay (bold not visible here); read-out: % Inhibition @ 1 µM Tie2-P
T1 construct: 4 to 12 nM phosphorylated Tie-2 (aa 775-1122); made in house; host or cells: insect cells
Procedure: This construct also carries a R774M mutation, which serves as the initiating methionine residue in translation.
The kinase-catalyzed production of ADP from ATP that accompanies phosphoryl transfer to the random copolymer poly(Glu4 Tyr) was coupled to the oxidation of NADH through the activities of pyruvate kinase (PK) and lactate dehydrogenase (LDH). NADH conversion to NAD* was monitored by the decrease in absorbance at 340 nm (ε = 6.22 cm^-1mM^-1) using a Beckman DU650 spectrophotometer. Typical reaction solutions contained 1 mM phosphoenolpyruvate, 0.24 mM NADH, 40 mM MgCl2, 5 mM DTT, 2.9 mg/mL poly(Glu4Tyr), 0.5 mM ATP, 15 units/mL PK, 15 units/mL LDH in 100 mM HEPES, pH 7.5. […]

[3] = system: human umbilical vein endothelial cells (HUVEC); assay: HUVEC proliferation assay (VEGF-stimulated, MTT); format: cell-based; settings: Homo sapiens, HUVEC, Table 1
in vitro = in vitro ADME, human; settings: human liver microsomes, 5 µM test compound, 37 °C, 2 h
Summary of the method: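 HLM diluted to 5 mg/mL in 100 mM KPO4, preincubated 10 min at 37 °C with NADPH-regenerating system. Compound (5 µM final) incubated at 37 °C in triplicate, sampled at 0 and 2 h into ice-cold acetonitrile, then LC-MS analysis.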

in vivo = settings: mouse, plasma, pH 2.3
[4] = molecular target: unphosphorylated VEGF-R2Δ50 (Homo sapiens, UniProt P35968, DEL940-989/E990V); assay: biochemical; settings: read-out: FLVK ** (% inhibition)
[5] = system: VEGF dependent retinal vascular development; assay: In vivo assay of retinal vascular development in neonatal rats; set-up: species or system rat; settings: Model P8, intravitreal, 5 mg/ml
Procedure: The development of the retinal vascular in rats occurs from postnatal day 1 to postnatal day 14 (P1-P14). […] To assess the ability of specific compounds to inhibit the activity of VEGF in vivo, compounds were formulated in an appropriate vehicle, usually 50% polyethylene glycol, average molecular weight 400 daltons, and 50% solution of 300 mM sucrose in deionized water. […] Six days after the intravitreal injection, the animals were sacrificed and the retinas dissected free from the remaining ocular tissue. […] The individual retinas are then flat-mount onto glass slides and examined to determine the extent of vascularization. […] The amount of vessel regression was used to assess the relative potency of the compounds after in vivo administration.
For more quantitative analysis of regression, images of ADPase-stained, flat-mounted retinas were captured with a digital camera attached to a dissecting microscope. Retinal images were then imported into an image analysis software (Image Pro Plus 4.0, Media Cybernetics, Silver Spring, MD). The software was employed to determine the percentage of the area of the retina that contained stained vessels. This value for the experimental eye was compared to that measured for the vehicle injected, contralateral eye from the same animal. The reduction in the vascular area seen in the eye that received compound as compared to the vehicle-injected eye was then expressed as the "percent regression" for that sample.

[6] = system: VEGF dependent retinal neovascularization; assay: Neonatal rat model of retinopathy of prematurity; format: in vivo; settings: Model ROP, intravitreal, vehicle PEG/water 70:30
Procedure: A second model of VEGF dependent retinal neovascularization was employed to evaluate the activities of this series of compounds. […] The animals are exposed for 24 hours to a concentration of 50% oxygen followed by 24 hours at a concentration of 10% oxygen. This alternating cycle of hyperoxia followed by hypoxia is repeated 7 times after which the animals are removed to room air (P14). Compounds are administered via intravitreal injection upon removal to room air and the animals are sacrificed 6 days later (P20). The isolated retinas are then isolated, stained mounted and analyzed as detail above in the development model. The effectiveness was also graded as is described for the development model.

[7] = + albumin, read-out: HUVEC + albumin IC50
[8] = MV522, Table 1, read-out: MV522 IC50
[9] = PO, 50 mg/kg, vehicle PEG400:H2O pH 2.3 60:40
[10] = mouse, in vivo, ip, 25 mg/kg, pH 2.3
[11] = mouse, in vivo, po, 50 mg/kg, pH 2.3
[12] = IP, 25 mg/kg, vehicle PEG400:H2O pH 2.3 30:70
[13] = PO, 50 mg/kg, vehicle PEG400:H2O pH 2.3 30:70

Chain of LCK tyrosine kinase (P06239 223-509 P223M/C224D): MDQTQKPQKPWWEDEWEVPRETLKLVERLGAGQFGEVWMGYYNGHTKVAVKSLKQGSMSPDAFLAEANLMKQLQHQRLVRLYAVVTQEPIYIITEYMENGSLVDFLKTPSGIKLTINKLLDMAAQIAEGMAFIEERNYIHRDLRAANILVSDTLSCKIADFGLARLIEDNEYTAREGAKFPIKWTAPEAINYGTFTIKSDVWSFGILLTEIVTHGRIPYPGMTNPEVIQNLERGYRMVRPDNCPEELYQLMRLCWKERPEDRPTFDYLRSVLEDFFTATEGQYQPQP
Chain of human FGF-R1 (P11362 456-766 L457V/C488A/C584S): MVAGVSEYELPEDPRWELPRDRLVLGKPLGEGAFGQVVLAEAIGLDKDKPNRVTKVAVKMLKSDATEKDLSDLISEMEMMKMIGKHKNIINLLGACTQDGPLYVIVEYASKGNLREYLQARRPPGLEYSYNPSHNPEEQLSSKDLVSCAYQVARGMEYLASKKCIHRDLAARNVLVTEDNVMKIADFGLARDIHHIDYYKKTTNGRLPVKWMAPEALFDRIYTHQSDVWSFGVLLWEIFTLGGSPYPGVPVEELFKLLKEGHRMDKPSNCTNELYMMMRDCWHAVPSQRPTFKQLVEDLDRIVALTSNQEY
T1 sequence (Q02763 775-1122): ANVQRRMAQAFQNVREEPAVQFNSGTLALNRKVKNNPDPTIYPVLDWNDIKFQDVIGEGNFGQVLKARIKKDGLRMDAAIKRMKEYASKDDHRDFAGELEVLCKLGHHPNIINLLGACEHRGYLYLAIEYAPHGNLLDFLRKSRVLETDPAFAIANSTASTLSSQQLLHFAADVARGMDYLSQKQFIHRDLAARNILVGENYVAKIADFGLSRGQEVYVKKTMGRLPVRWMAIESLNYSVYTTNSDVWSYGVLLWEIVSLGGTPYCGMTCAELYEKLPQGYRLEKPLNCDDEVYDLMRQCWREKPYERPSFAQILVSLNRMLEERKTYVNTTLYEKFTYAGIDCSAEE
Chain of unphosphorylated VEGF-R2Δ50 (P35968 with tags, fused parts or gaps DEL940-989/E990V limits assumed): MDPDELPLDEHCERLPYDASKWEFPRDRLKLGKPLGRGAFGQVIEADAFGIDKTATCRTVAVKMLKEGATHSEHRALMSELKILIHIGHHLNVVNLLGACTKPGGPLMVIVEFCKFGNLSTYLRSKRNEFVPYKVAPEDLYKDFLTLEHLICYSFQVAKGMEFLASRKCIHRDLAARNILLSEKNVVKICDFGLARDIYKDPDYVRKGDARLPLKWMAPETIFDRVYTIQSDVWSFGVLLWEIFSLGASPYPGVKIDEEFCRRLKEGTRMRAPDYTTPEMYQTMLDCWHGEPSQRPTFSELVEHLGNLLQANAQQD

Compound | inhibition at 1 µM (LCK tyrosine kinase) [%] | IC50 [3, 7] [nM] | IC50 ([3]; read-out: HUVEC IC50) [nM] | IC50 [1, 8] [µM] | inhibition at 1 µM (human FGF-R1) [%] | also measured
COc1cc(-c2ccc3c(-c4ccc5ccccc5c4)n[nH]c3c2)ccc1O [2(a), 3-(Naphthalen-2-yl)-6-(3-methoxy-4-hydroxy-phenyl)-1H-indazole] | – | – | – | – | – | IC50 ([1]; MV522, read-out: MV522 IC50 (µM)): 0.58 µM
CC(=O)Nc1cccc(Oc2ccc3c(/C=C/c4ccccc4)n[nH]c3c2)c1 [4(b), N-[3-(3-Styryl-1H-indazol-6-yloxy)-phenyl]-acetamide] | 13 | 205 | 25 | 3.2 | – | Ki (human FGF-R1): 4.9 nM; inhibition at 1 µM [2]: 29%; remaining at 2 h, 5 µM (in vitro; read-out: % remain (HLM, 2 h)): 63%
Cc1cnc(C(=O)Nc2cccc(Oc3ccc4c(/C=C/c5ccccc5)n[nH]c4c3)c2)s1 [5(a), 5-Methyl-thiazole-2-carboxylic acid {3-(3-styryl-1H-indazol-6-yloxy)-phenyl]-amide] | 28 | – | 12 | 9.6 | – | inhibition at 1 µM [2]: 44%
CC(=O)Nc1cccc(N(C)c2ccc3c(/C=C/c4ccccc4)n[nH]c3c2)c1 [12(a), N-{3-[Methyl-(3-styryl-1H-indazol-6-yl)-amino]-phenyl]-acetamide] | 17 | 87 | 6 | 2.1 | – | –
O=C(c1cccc(NC(=O)c2cccc3[nH]ccc23)c1)c1ccc2c(/C=C/c3ccccc3)n[nH]c2c1 [19(f), 6-[3-(indol-4-ylcarboxamido)benzoyl]-3-E-styryl-1H-indazole] | 52 | 16 | 2.3 | 3.9 | 58 | % remain (HLM, 2 h) (in vitro): 98%
CC(C)C(=O)Nc1cccc(C(=O)c2ccc3c(/C=C/c4ccccc4)n[nH]c3c2)c1 [19(h), 6-[3-(2-methylpropionamido)benzoyl]-3-E-styryl-1H indazole] | – | – | 600 | 7.9 | – | –
O=C(c1cccc(NC(=O)c2ccccn2)c1)c1ccc2c(/C=C/c3ccccc3)n[nH]c2c1 [19(k), 6-[3-(pyridin-2-ylcarboxamido)benzoyl)-3-E-styryl-1H-indazole] | 37 | – | 2.6 | 4 | 41 | % remain (HLM, 2 h) (in vitro): 58%; T1/2 (IP, 25 mg/kg, vehicle PEG400:H2O pH 2.3 60:40): 2.2 h; Cmin (7 hr conc.) [9]: 4 ng/mL; T1/2 [9]: 2.2 h; AUC (in vivo; ip, 25 mg/kg): 428 ng·h/mL; AUC (in vivo; po, 50 mg/kg): 19 ng·h/mL; inhibition at 0.05 µM [4]: 100%
O=C(c1cccc(NC(=O)c2cc(Cl)ccn2)c1)c1ccc2c(/C=C/c3ccccc3)n[nH]c2c1 [19(n), 6-[3-(4-chloropyridin-2-ylcarboxamido)benzoyl)-3-E-styryl-1H-indazole] | 26 | 23 | 3.4 | 2.9 | 48 | –
CC(=O)Nc1cccc(Sc2ccc3c(/C=C/c4ccccc4)n[nH]c3c2)c1 [20(a), 6-(3-Acetamido-phenylsulfanyl)-3-styryl-1H-indazole] | – | – | 200 | 9.4 | – | –
C=C(c1cccc(NC(=O)c2ccccc2)c1)c1ccc2c(/C=C/c3ccccc3)n[nH]c2c1 [22(b), 6-(1-(3-(Benzoylamido)phenyl)-vinyl)-3-styryl-1H-indazole] | – | – | 4.8 | 8.5 | – | –
C/C=C/C(=O)Nc1cccc(C(=O)c2ccc3c(/C=C/c4ccccn4)n[nH]c3c2)c1 [41 (c)] | – | – | – | – | – | Initial Evaluation ([5]; vehicle PEG/water 50:50): ++ (two pluses being judged to be approximately 25-75 % regression); % Inhibition ([6]; 1 mg/ml): 16%; % Inhibition ([6]; 10 mg/ml): 54%; Initial Evaluation ([6]; 10 mg/ml): +++ (three pluses give to retinas with near total regression (approximately 75% or greater)); AUCleast [10]: 3397 ng·h/mL; T1/2 [10]: 1.7 h; AUCleast [11]: 3182 ng·h/mL; T1/2 [11]: 2.6 h
O=C(Nc1cccc(C(=O)c2ccc3c(-c4nc5cccnc5[nH]4)n[nH]c3c2)c1)c1ccccc1 [Example 42(d), 6-(3-benzamidobenzoyl)-3-(3H-imidazo[4,5-b]pyridin-2-yl)-1H-indazole] | – | – | – | > 10 | – | –
O=C(Nc1cccc(Oc2ccc3c(/C=C/c4ccccn4)n[nH]c3c2)c1)c1ccccc1 [Reference Example 31(a), 6-[3-benzamidophenoxy]-3-E-[2-(Pyridin-2-yl)ethenyl]-1H-indazole] | 77 | 10 | 0.7 | – | 95 | % remain (HLM, 2 h) (in vitro): 58%; % Inhibition ([5]; vehicle PEG/water 70:30): 46%; T1/2 [12]: 2.4 h; T1/2 [13]: 1.6 h; AUC (in vivo; ip, 25 mg/kg): 47500 ng·h/mL; AUC (in vivo; po, 50 mg/kg): 40900 ng·h/mL
Cc1cc(C(=O)Nc2cccc(Oc3ccc4c(/C=C/c5ccccn5)n[nH]c4c3)c2)nn1C [Reference Example 31(b), 6-[3-((1,5-Dimethyl-1H-pyrazol-3-yl)carboxamido)phenoxy]-3-E-[2-(pyridin-2-yl)ethenyl)-1H-indazole] | 66 | 5.6 | – | – | 97 | % Inhibition ([5]; vehicle PEG/water 50:50): 32%; T1/2 [12]: 1.7 h; T1/2 [13]: 1.0 h; AUC (in vivo; ip, 25 mg/kg): > 7040 ng·h/mL; AUC (in vivo; po, 50 mg/kg): 2070 ng·h/mL
O=C(Nc1cccc(Cl)c1)c1ccccc1Sc1ccc2c(/C=C/c3ccccn3)n[nH]c2c1 [Reference Example 33(d), 6-[2-(3-chlorophenylcarbamoyl)phenylsulfanyl]-3-E-[2-(pyridin-2-yl)ethenyl]-1H-indazole] | 55 | > 300 | – | 8 | – | % remain (HLM, 2 h) (in vitro): 22%
